The results in this text go back to US20230373934A1, “ANDROGEN RECEPTOR MODULATORS AND METHODS FOR THEIR USE” (ESSA Pharma, Inc., priority 2022, published 2023).

One data set deals with T1, androgen receptor (AR) (Homo sapiens, UniProt P10275).
T1 sequence (P10275 1-920 T878A): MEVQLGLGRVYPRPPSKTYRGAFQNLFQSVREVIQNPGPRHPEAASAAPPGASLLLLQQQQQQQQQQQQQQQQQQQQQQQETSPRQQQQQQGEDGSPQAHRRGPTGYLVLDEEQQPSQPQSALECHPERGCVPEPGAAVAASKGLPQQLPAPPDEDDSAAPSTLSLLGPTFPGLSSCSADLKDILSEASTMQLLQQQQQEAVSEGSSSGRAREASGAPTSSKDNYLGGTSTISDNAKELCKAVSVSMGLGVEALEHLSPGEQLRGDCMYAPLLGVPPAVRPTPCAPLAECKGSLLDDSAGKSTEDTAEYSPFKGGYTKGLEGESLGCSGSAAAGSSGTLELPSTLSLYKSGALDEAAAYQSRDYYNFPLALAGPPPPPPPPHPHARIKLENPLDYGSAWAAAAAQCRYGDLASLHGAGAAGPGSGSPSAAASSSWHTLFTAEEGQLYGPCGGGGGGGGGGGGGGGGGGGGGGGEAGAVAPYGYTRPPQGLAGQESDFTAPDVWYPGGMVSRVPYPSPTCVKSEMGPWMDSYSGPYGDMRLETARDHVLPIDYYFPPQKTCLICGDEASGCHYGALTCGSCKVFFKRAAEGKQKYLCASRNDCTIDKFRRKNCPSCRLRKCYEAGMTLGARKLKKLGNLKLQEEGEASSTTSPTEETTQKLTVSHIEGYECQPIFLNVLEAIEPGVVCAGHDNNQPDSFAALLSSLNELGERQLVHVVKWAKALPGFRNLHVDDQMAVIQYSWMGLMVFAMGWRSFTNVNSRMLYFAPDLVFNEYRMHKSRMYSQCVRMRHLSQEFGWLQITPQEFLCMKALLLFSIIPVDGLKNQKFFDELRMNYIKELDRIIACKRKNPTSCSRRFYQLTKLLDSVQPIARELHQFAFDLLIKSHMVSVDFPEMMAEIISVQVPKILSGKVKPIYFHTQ
The experiment in a line: Androgen-induced PSA-luciferase assay, Luciferase Assay B (cells stably expressing ARR2PB or PSA-firefly luciferase reporter, 384-well). The conditions noted are these: Luciferase Assay B (Compounds A186-A219 and A221-A245); stable luciferase reporter cells, 1 h pretreatment, R1881 24 h, serum-free; read-out: PSA-Luc IC50 Range. The data set is classed as cell-based. On the technique in general: Reporter assays use an easily measured gene product as a stand-in for the process of interest.

Data set [1] is described as follows: Microsomal stability assay, liver microsome half-life (human). The data set is classed as in vitro ADME. The note with it: pH 7.4; human liver microsomes 0.5 mg/mL + NADPH, 1 μM compound, 37° C; read-out: Liver microsome + NADPH T½ (min) Human. (In general: Microsomes from liver hold many membrane-bound enzymes, among them those of drug oxidation.)
A short description of data set [2]: Microsomal stability assay, liver microsome half-life (rat). The data set is classed as in vitro ADME. The conditions noted are these: pH 7.4; rat liver microsomes 0.5 mg/mL + NADPH, 1 μM compound, 37° C; read-out: Liver microsome + NADPH T½ (min) Rat.
Data set [3] can be described thus: Microsomal stability assay, liver microsome half-life (mouse). The conditions noted are these: pH 7.4; mouse liver microsomes 0.5 mg/mL + NADPH, 1 μM compound, 37° C; read-out: Liver microsome + NADPH T½ (min) Mouse. The data set is classed as in vitro ADME.
The nature of data set [4]: Microsomal stability assay, liver microsome half-life (dog). The data set is classed as in vitro ADME. The note with it: pH 7.4; dog liver microsomes 0.5 mg/mL + NADPH, 1 μM compound, 37° C; read-out: Liver microsome + NADPH T½ (min) Dog.
Data set [5] can be described thus: Microsomal stability assay, liver microsome half-life (monkey). The data set is classed as in vitro ADME. The note with it: pH 7.4; monkey liver microsomes 0.5 mg/mL + NADPH, 1 μM compound, 37° C; read-out: Liver microsome + NADPH T½ (min) Monkey.

As a reminder, the IC50 is the concentration that inhibits the measured activity by half. Regarding `CS(=O)(=O)Nc1nc2ccc(-c3ccc(Oc4cc(Cl)c(OC5CC5)c(C#N)c4)cc3)cc2cc1F` [Compound A191], the IC50 at androgen receptor (AR) lay in the range of 500 to 2000 nM. Also, the half-life at 1 μM in data set [1], in data set [2], in data set [3], in data set [4] and in data set [5] was greater than 120 min in each case.
Regarding `CS(=O)(=O)Nc1cnc2cc(-c3ccc(Oc4cc(C#N)c(OC5CC5)c(C#N)c4)cc3)ccc2n1` [Compound A198], at androgen receptor (AR), the IC50 was less than 500 nM. For the same compound, the half-life at 1 μM in data set [1], in data set [2], in data set [3], in data set [4] and in data set [5] was greater than 120 min each time.
With `CS(=O)(=O)Nc1cnc2cc(-c3ccc(N(CC(F)(F)F)c4cc(F)c(OC5CC5)c(C#N)c4)cc3)ccc2n1` [Compound A199], on androgen receptor (AR), the half-maximal inhibitory concentration (IC50) is less than 500 nM. Further, the half-life at 1 μM in data set [1], in data set [2], in data set [3], in data set [4] and in data set [5] was greater than 120 min in each case.
As for `CS(=O)(=O)Nc1nccc(COc2ccc(N(CC(F)(F)F)c3cc(Cl)c(OC4CC4)c(C#N)c3)cc2)n1` [Compound A202], the IC50 on androgen receptor (AR) is less than 500 nM. The half-life at 1 μM in data set [1], in data set [2], in data set [3], in data set [4] and in data set [5] was greater than 120 min throughout.
On to `CS(=O)(=O)Nc1cnc2cc(-c3ccc(N(CC(F)(F)F)c4cnc(OC5CC5)c(C#N)c4)cc3)ccc2n1` [Compound A203, N-(6-(4-((5-cyano-6-cyclopropoxypyridin-3-yl)(2,2,2-trifluoroethyl)amino)phenyl)quinoxalin-2-yl)methanesulfonamide], for which the IC50 at androgen receptor (AR) was less than 500 nM. Moreover, the half-life at 1 μM in data set [1], in data set [2], in data set [3], in data set [4] and in data set [5] was greater than 120 min throughout.
Turning to `N#Cc1cc(Oc2ccc(-c3ccc4nc(N5CC(O)C5)cnc4c3)cc2)cc(Cl)c1OC1CC1` [Compound A205], the IC50 at androgen receptor (AR) is 500 to 2000 nM. In addition, the half-life at 1 μM in data set [1], in data set [2], in data set [3], in data set [4] and in data set [5] was greater than 120 min throughout.
Consider `CN(c1ccc(-c2ccc3nc(NS(C)(=O)=O)cnc3c2)cc1)c1cc(F)c(OC2CC2)c(C#N)c1` [Compound A208], for which the IC50 on androgen receptor (AR) is less than 500 nM. Also, the half-life at 1 μM in data set [1], in data set [2], in data set [3], in data set [4] and in data set [5] was greater than 120 min each time.
